# In the supplement of paper PMC11208160:
# Assay: recombinant barcode read abundance after kanamycin selection (control-corrected) (log10(CPM+1)); higher = more efficient recombination; sequences stand for … in AGTGCAGAGAAAATCGGCCAGTTTTCTCTGCCTGCAGTCCGCATGCCGT…AGATTTATGCAGCGGACTGCCTTTCTCCCAAAGTGATAAACCGGACAGTATCATGGACCGGTTTTCCCGGTAATCCGTATTTGCAAGGTTGGTTTCACT; site = the 11-nt target
# Method in brief: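 A promoter, a target, a barcode and the first 104 bridge RNA bases under J23119 made up each oligo. Oligos were Gibson-cloned into a vector bearing the other 73 bp and a T7-inducible recombinase, then co-electroporated into E. coli with a donor plasmid and plated in duplicate on chloramphenicol/ampicillin LB agar (control) or chloramphenicol/ampicillin/kanamycin with 0.1 mM IPTG. Recombination efficiency is the averaged, control-corrected counts per million of recombinant-junction barcodes. Reported values are log10(CPM+1).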
# 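Further: IS621 recombinase and bridge RNA in Escherichia coli cells.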
row,Sequence,recombinant barcode read abundance (log10)
1,CTCCTATCTTGGGTTCTAACCTGTTGCCT (site CTCCAATCTAG),0.238
2,CTCCTATCTTGGGTTCTAACCTGTTGCCT (site CTCCTATCTAG),0.848
3,CTCGAATCTTGGGTTCTAACCTGTTGCTA (site CTCGAACCTCA),0.175
4,CTCGAATCTTGGGTTCTAACCTGTTGCTA (site CTCGAATCTTA),1.17
5,CTCGACCCTTGGGTTCTAACCTGTTGCCT (site CTCGACCCTAG),1.7
6,CTCGACCCTTGGGTTCTAACCTGTTGCCT (site CTGGATCCTAG),0.0491
7,CTCGATACTTGGGTTCTAACCTGTTGCTT (site CTCGATACTAA),0.684
8,CTCGATACTTGGGTTCTAACCTGTTGCTT (site CTCGCTACTAA),0.096
9,CTCGCCACTTGGGTTCTAACCTGTTGCCT (site CTCGCCACTAG),0.186
10,CTCGCCACTTGGGTTCTAACCTGTTGCCT (site GAGTTGTCTCC),0.0691
11,CTCGGAGCTTGGGTTCTAACCTGTTGCCG (site CTCGGAGCTCG),0.596
12,CTCGGAGCTTGGGTTCTAACCTGTTGCCG (site CTCGGATCTTG),0.47
13,CTCGGATCTTGGGTTCTAACCTGTTGCCA (site CTCGGAGCTCG),0.167
14,CTCGGATCTTGGGTTCTAACCTGTTGCCA (site CTCGGATCTTG),0.0484
15,CTCGGTACTTGGGTTCTAACCTGTTGCCA (site CTCGGTACTTG),0.489
16,CTCGGTACTTGGGTTCTAACCTGTTGCCA (site CTCGGTTCTAG),0.0612
17,CTCGGTGCTTGGGTTCTAACCTGTTGCCT (site CACGGTCCTAG),0.118
18,CTCGGTGCTTGGGTTCTAACCTGTTGCCT (site CTCGGTGCTAG),1.15
19,CTCGTGTCTTGGGTTCTAACCTGTTGCAG (site CTCGTGTCTCT),1.95
20,CTCGTGTCTTGGGTTCTAACCTGTTGCAG (site CTCTTGTCTCA),0.0182
21,CTCGTGTCTTGGGTTCTAACCTGTTGCAT (site AGAACTACTTG),0.00883
22,CTCGTGTCTTGGGTTCTAACCTGTTGCAT (site CTCGTGTCTAT),2.88
23,CTCTACACTTGGGTTCTAACCTGTTGCCA (site CTCTAAACTTG),0.0347
24,CTCTACACTTGGGTTCTAACCTGTTGCCA (site CTCTACACTTG),0.879
25,CTCTACACTTGGGTTCTAACCTGTTGCCA (site CTCTAGACTTG),0.161
26,CTCTACACTTGGGTTCTAACCTGTTGCCA (site CTCTATACTTG),0.0697

row,Sequence,recombinant barcode read abundance (log10)
1,CTCTACCCTTGGGTTCTAACCTGTTGCAG (site AGAGCGACTTA),0.0772
2,CTCTACCCTTGGGTTCTAACCTGTTGCAG (site CTCTACCCTCT),1.9
3,CTCTACTCTTGGGTTCTAACCTGTTGCGT (site CTCTACTCTAC),0.529
4,CTCTACTCTTGGGTTCTAACCTGTTGCGT (site TGACCTACTTG),0.0348
5,CTCTAGACTTGGGTTCTAACCTGTTGCCA (site CTCTAAACTTG),0.193
6,CTCTAGACTTGGGTTCTAACCTGTTGCCA (site CTCTACACTTG),0.0305
7,CTCTAGACTTGGGTTCTAACCTGTTGCCA (site CTCTAGACTTG),0.69
8,CTCTAGACTTGGGTTCTAACCTGTTGCCA (site CTCTATACTTG),0.0325
9,CTCTAGCCTTGGGTTCTAACCTGTTGCGT (site CTCTAACCTAC),1.38
10,CTCTAGCCTTGGGTTCTAACCTGTTGCGT (site CTCTACCCTAC),0.178
11,CTCTAGCCTTGGGTTCTAACCTGTTGCGT (site CTCTAGCCTAC),1.25
12,CTCTAGCCTTGGGTTCTAACCTGTTGCGT (site CTCTATCCTAC),0.0754
13,CTCTAGTCTTGGGTTCTAACCTGTTGCCT (site CTCTAGTCTAA),0.0156
14,CTCTAGTCTTGGGTTCTAACCTGTTGCCT (site CTCTAGTCTAC),0.792
15,CTCTAGTCTTGGGTTCTAACCTGTTGCCT (site CTCTAGTCTAG),0.154
16,CTCTAGTCTTGGGTTCTAACCTGTTGCCT (site CTCTAGTCTAT),0.526
17,CTCTATACTTGGGTTCTAACCTGTTGCCA (site CTCTAAACTTG),0.0863
18,CTCTATACTTGGGTTCTAACCTGTTGCCA (site CTCTACACTTG),0.102
19,CTCTATACTTGGGTTCTAACCTGTTGCCA (site CTCTAGACTTG),0.511
20,CTCTATACTTGGGTTCTAACCTGTTGCCA (site CTCTATACTTG),0.0112
21,CTCTATCCTTGGGTTCTAACCTGTTGCGT (site CTCTAACCTAC),0.526
22,CTCTATCCTTGGGTTCTAACCTGTTGCGT (site CTCTACCCTAC),0.218
23,CTCTATCCTTGGGTTCTAACCTGTTGCGT (site CTCTAGCCTAC),0.376
24,CTCTATCCTTGGGTTCTAACCTGTTGCGT (site CTCTATCCTAC),0.551
25,CTCTCGTCTTGGGTTCTAACCTGTTGCGT (site CTCTCGTCTAA),0.0993
26,CTCTCGTCTTGGGTTCTAACCTGTTGCGT (site CTCTCGTCTAC),1.19

row,Sequence,recombinant barcode read abundance (log10)
1,CTCTCGTCTTGGGTTCTAACCTGTTGCGT (site CTCTCGTCTAG),0.291
2,CTCTCGTCTTGGGTTCTAACCTGTTGCGT (site CTCTCGTCTAT),0.0817
3,CTCTCTCCTTGGGTTCTAACCTGTTGCCT (site CTCTCTCCTAG),0.261
4,CTCTCTCCTTGGGTTCTAACCTGTTGCCT (site CTCTCTTCTAG),0.148
5,CTCTGGACTTGGGTTCTAACCTGTTGCAC (site CTCTGGACTGT),0.64
6,CTCTGGACTTGGGTTCTAACCTGTTGCAC (site CTGTGGACTCT),0.058
7,CTCTGGGCTTGGGTTCTAACCTGTTGCCT (site CTCTAGGCTAG),0.179
8,CTCTGGGCTTGGGTTCTAACCTGTTGCCT (site CTCTCGGCTAG),0.29
9,CTCTGGGCTTGGGTTCTAACCTGTTGCCT (site CTCTGGGCTAG),0.15
10,CTCTGGGCTTGGGTTCTAACCTGTTGCCT (site CTCTTGGCTAG),0.198
11,CTCTTGGCTTGGGTTCTAACCTGTTGCCT (site CTCTAGGCTAG),0.261
12,CTCTTGGCTTGGGTTCTAACCTGTTGCCT (site CTCTCGGCTAG),0.139
13,CTCTTGGCTTGGGTTCTAACCTGTTGCCT (site CTCTGGGCTAG),0.0739
14,CTCTTGGCTTGGGTTCTAACCTGTTGCCT (site CTCTTGGCTAG),0.0663
15,CTCTTGTCTTGGGTTCTAACCTGTTGCCA (site CGCTTGTCTCG),0.391
16,CTCTTGTCTTGGGTTCTAACCTGTTGCCA (site CTCTTGTCTTG),0
17,CTGAGCCCTTGGGTTCTAACCTGTTGCCT (site CTGAGCCCTAG),0.6
18,CTGAGCCCTTGGGTTCTAACCTGTTGCCT (site CTGCGCCCTAG),0.448
19,CTGAGCCCTTGGGTTCTAACCTGTTGCCT (site CTGGGCCCTAG),0.354
20,CTGAGCCCTTGGGTTCTAACCTGTTGCCT (site CTGTGCCCTAG),0.0331
21,CTGAGCCCTTGGGTTCTAACCTGTTGCTG (site CAGAGCCCTCA),0.327
22,CTGAGCCCTTGGGTTCTAACCTGTTGCTG (site CTGAGCCCTCA),1.5
23,CTGCACCCTTGGGTTCTAACCTGTTGCCT (site CGCCACCCTAG),0.411
24,CTGCACCCTTGGGTTCTAACCTGTTGCCT (site CTGCACCCTAG),1.57
25,CTGCTGTCTTGGGTTCTAACCTGTTGCCA (site CTGATGTCTTG),0.154
